Measurements as given in US20120214186A1, “METHODS AND COMPOSITIONS FOR DETECTING AND QUANTIFYING sAPPbeta” (priority 2006, published 2012).

Columns and labels:
[1] = biological target: T1, BACE1 (Homo sapiens, UniProt P56817); experiment: Cell-based BACE1 assay (sAPPβ ELISA-SEAP), SY5Y-BACEGFP-SEAPAPPwt stable cells; conditions: 6 hours, 96-well; TAPI-2 100 mM, BACE inhibitor IV 5 mM, AEBSF 500 mM, Cpd E 20 nM
T1 construct: expressed in transfected cells
Method: […] cells expressing BACEGFP and SEAPAPPwt were grown on standard cell culture plates in DMEM (Invitrogen) supplemented with 10% fetal bovine serum, 1% Pen/Strep/Glutamine, and 250 μg/ml zeocin. SEAPAPPwt is cleaved by BACE1 (β-secretase) as well as a secretase to release large extracellular fragments sAPPβ and sAPPα, respectively. Cell culture media containing these fragments was harvested and SEAP-sAPPβ was captured using 96-well plates coated with the sAPPβ specific antibody (sβwt). The ELISA plate was then incubated with the fluorescent alkaline phosphatase substrate 4-MUP (Sigma) at a final concentration of 30 μM (in 100 mM glycine, 1 mM MgCl2, 1 mM ZnCl2 at pH 9.8) for 1 hour before detection (excitation: 360 nm, emission: 449 nm).
SY5Y-BACEGFP-SEAPAPPwt stable cells were grown to 100% confluence on 96-well plates in quadruplicate and incubated for 6 hours with DMSO, TAPI-2 ([…]), RACE inhibitor IV ([…]), AEBSF ([…]), or Cpd E (20 nM) in […] of conditioned media (DMEM (invitrogen) supplemented with 10% fetal bovine serum, 1% Pen/Strep/Glutamine, and 250 μg/ml zeocin).
A sAPPβ ELISA-SEAR assay was conducted using […] of media.
Media was collected after 6 hrs incubation and […] was used in the BACE1 assay as described above.

[2] = test system: HEK293-APPNFEV cells; conditions: read-out: reported IC50; cited from earlier work
[3] = test system: SY5Y-BACEGFP-SEAPAPPwt stable cells; conditions: at concentrations used; data not shown
[4] = p-glycoprotein inhibitor required to increase transport; cited from earlier work
[5] = biological target: T2, BACE1 (Mus musculus, UniProt P56818); conditions: mouse model of AD; cited from earlier work
T2 construct: host or cells: mouse model of AD
T2 sequence (P56818 46-501): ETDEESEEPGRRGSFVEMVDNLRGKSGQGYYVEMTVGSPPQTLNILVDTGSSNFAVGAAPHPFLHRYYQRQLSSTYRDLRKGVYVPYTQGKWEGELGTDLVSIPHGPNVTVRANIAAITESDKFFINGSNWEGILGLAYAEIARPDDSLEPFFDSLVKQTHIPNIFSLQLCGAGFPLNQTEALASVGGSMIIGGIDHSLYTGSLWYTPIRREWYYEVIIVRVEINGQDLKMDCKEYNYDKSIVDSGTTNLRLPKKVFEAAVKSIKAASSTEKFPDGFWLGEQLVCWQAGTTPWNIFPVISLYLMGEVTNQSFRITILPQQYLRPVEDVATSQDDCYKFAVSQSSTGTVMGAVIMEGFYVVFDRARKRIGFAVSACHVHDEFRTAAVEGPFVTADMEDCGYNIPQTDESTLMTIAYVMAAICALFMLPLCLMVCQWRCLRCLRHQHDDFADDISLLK

T1 sequence (P56817 46-501): as the sequence (P56818 46-501) above, with S6P, I162V, I165L, T180S, A182V, V340I, A393L, H443Q counted along it

SMILES | effect on sAPPβ [1] | cellular toxicity [3] | other results
C[C@H](NC(=O)Cc1cc(F)cc(F)c1)C(=O)N[C@H]1N=C(c2ccccc2)c2ccccc2N(C)C1=O [CpdE] | no effect | – | –
C[C@@H](NC(=O)c1cc(C(=O)N[C@@H](Cc2ccccc2)[C@H](O)CNC2CC2)cc(N(C)S(C)(=O)=O)c1)c1ccccc1 [BACE inhibitor IV] | – | do not exhibit significant cellular toxicity | IC50 [2]: 29 nM
CCNc1cc(C(=O)N[C@@H](Cc2ccccc2)[C@H](O)CNCc2cccc(C(F)(F)F)c2)c(F)c(N2CCCCS2(=O)=O)c1 [GSK188909] | – | – | brain penetration [4]: low brain penetration; in vivo efficacy [5]: in vivo efficacy
CC(C)C[C@H](CC(=O)NO)C(=O)N[C@H](C(=O)N[C@@H](C)C(=O)NCCN)C(C)(C)C [TAPI-2] | no effect | – | –
NCCc1ccc(S(=O)(=O)F)cc1 [AEBSF] | dramatically reduced | do not exhibit significant cellular toxicity | –
